Results published in PubChem BioAssay AID179 (DTP/NCI, 2004).
Activity calls are given as the source filed them.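 Rule for the calls: active = compounds giving half or more protection of infected cells from virus-caused growth loss, again on retest; inactive = the rest.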 Where a SMILES comes first, the peptide text is derived from it.

Tested on: CEM cells HIV-1 protection, formazan growth assay
Assay: NCI AIDS Antiviral Assay
Conditions: for IC50: measured here: growth of uninfected CEM cells
In short: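 Human CEM cells, uninfected and HIV-1-infected, received five drug concentrations, and growth was read by soluble formazan assay. Compounds giving at least 50% protection were retested; reproducible 100% protection defined confirmed active.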

SMILES | EC50 | IC50 | outcome
CC(=O)c1cc(N=Nc2ccc(/C=C/c3ccc(N=Nc4cc(O)c5ncccc5c4C(C)=O)cc3S(=O)(=O)O)c(S(=O)(=O)O)c2)c(O)c2ncccc12 | > 29.5 µM | 28.8 µM | –
CN(C(=O)/C=C/c1ccccc1)C1C2CN3CCC(O2)C13 (stereo not drawn) | – | – | inactive
CCc1n[nH]c(=O)n1N1C(=O)C2CCCCC2C1=O (stereo not drawn) | > 200 µM | > 200 µM | –
O=C(OC(=C(c1ccccc1)c1ccccc1)N1CCCC1=S)C(c1ccccc1)c1ccccc1 | > 200 µM | > 200 µM | –
Cc1ccc2[nH]c(=O)c(C(C#N)c3ccccc3)nc2c1 (stereo not drawn) | – | – | inactive
CNc1ccc2ncccc2c1[N+](=O)[O-] | > 46.8 µM | > 46.8 µM | –
C=CCNC(=S)N1CC(C)C(=O)Nc2cc(Cl)ccc21 (stereo not drawn) | > 200 µM | > 200 µM | –
CC1(C)CCc2cc3c(cc2O1)OC(C)(C)CC3=O | – | – | inactive
CC1C(=O)C(C)C(c2ccccc2)NC1c1ccccc1 (stereo not drawn) | > 67.6 µM | > 67.6 µM | –
CC1=Cc2cccc(C)c2C(=O)C1=O | > 38.9 µM | 6.46 µM | –
CC(C)=CCC/C(C)=C/CC/C(C)=C/CC/C=C(\C)CC/C=C(\C)CCC1SC1(C)C (stereo not drawn) | > 200 µM | > 200 µM | –
CCC(C)C(NC(=O)C(CCCN=C(N)N)NC(=O)C(CC(=O)O)NC(=O)C(Cc1ccc(O)cc1)NC(=O)C(N)CC(C)C)C(=O)NC(C(=O)NC(CC(C)C)C(=O)NC(CCCN=C(N)N)C(=O)NC(Cc1ccc(O)cc1)C(=O)O)C(C)CC (stereo not drawn) (H-LYDRIILRY-OH; configuration not given here) | > 10.2 µM | > 10.2 µM | –
CC(C)(C)[Si](C)(C)OC[C@H]1O[C@@H](n2ccc(=O)[nH]c2=O)C(O[Si](C)(C)C(C)(C)C)[C@]12CCN(O)CO2 (stereo partly drawn) | > 200 µM | 11.5 µM | –
O=C(OCC1CCCN2CCCCC12)c1cccnc1 (stereo not drawn) | > 200 µM | > 200 µM | –
O=S1(=O)NCNc2cc(C(F)(F)F)ccc21 | > 1000 µM | 380 µM | –
N#C/C(=C/c1ccc(Cl)cc1)c1ccc(Cl)cc1 | > 200 µM | 195 µM | –
CC1(CO)CCCC/C1=N\Nc1cc([N+](=O)[O-])cc([N+](=O)[O-])c1 (stereo not drawn) | > 501 µM | 19.1 µM | –

SMILES | EC50 | IC50 | outcome
O=C(O)c1ccc(-c2ccc(C(=C(F)F)C(F)(F)F)cc2)cc1 | – | – | inactive
Cc1nc(C)c(N2CCN(C(=O)O)CC2)c(=O)[nH]1 | > 200 µM | > 200 µM | –
CN1C(CC(O)c2ccccc2)CCCC1CC(O)(c1ccccc1)c1ccccc1 (stereo not drawn) | > 107 µM | 22.9 µM | –
O=c1c2ccccc2oc2c(Cl)cc(Cl)cc12 | > 490 µM | 263 µM | –
O=C(O)c1ccc(CSc2ccccc2C(=O)O)c([N+](=O)[O-])c1 | > 759 µM | > 759 µM | –
COc1ccc(C2SC(N)=Nc3c2c(C)nn3C(=O)c2ccncc2)cc1OC (stereo not drawn) | 49 µM | 170 µM | –
CC(C)(C)C1CCC2c3c([nH]c4ncccc34)C3C(=O)N(c4ccccc4)C(=O)C3C2C1 (stereo not drawn) | > 1.78 µM | > 1.78 µM | –
Clc1ccc(CSc2cnnc3ccccc23)cc1 | > 61.7 µM | > 61.7 µM | –
C[C@H](N)C(O)C/C=C\C/C=C\C/C=C\C/C=C\C/C=C\C/C=C\CCCCCCC(O)[C@H](C)N (stereo partly drawn) | – | – | inactive
COc1ccc2c(c1)OC[C@@H]1c3cc4c(cc3O[C@H]21)OCO4 | > 63.1 µM | > 63.1 µM | –
NNS(=O)(=O)c1ccc(/C=C2\NC(=O)NC2=O)cc1 | > 200 µM | > 200 µM | –
CCOC(=O)C(=Cc1ccc(N(C)C)cc1)C(=O)OCC | > 89.1 µM | 46.8 µM | –
Cc1cn(C(CO)OC(CO)CN(O)C2C3CC4CC(C3)CC2C4)c(=O)[nH]c1=O (stereo not drawn) | > 200 µM | > 200 µM | –
NCCCN(CCCN)CCCNCc1c2ccccc2c(CNCCCN(CCCN)CCCN)c2ccccc12 | 4.79 µM | 16.6 µM | –
Cc1cc(-c2cccs2)oc(=O)c1NC(=O)c1ccccc1 | > 200 µM | 26.9 µM | –
CCOC(=O)C(=Cc1ccc(C(=O)OC)cc1)C(=O)OCC | > 85.1 µM | 12.6 µM | –
CSc1ccc(NC(=O)Nc2cc(C)ccn2)cc1 | > 200 µM | 191 µM | –
